Test results: patent US20060089335A1, “Compositions and methods for enhancing cognitive function and synaptic plasticity” (priority 2003, published 2006)
“Also recorded” adds a separate entry of the source.

Experiments:
[1] = test system: GluR1; assay: quantitative Western blotting of hippocampal homogenate; format: in vivo, rat; settings: rat, in vivo, 6 mg/kg/day
Protocol: (§1) Quantitative Western blotting. Samples of hippocampal homogenate (10 ug/sample) were resolved on polyacrylamide gels, transferred to PVDF, and probed with anti-NR1 (Chemicon), NR2A (Upstate) or NR2B (Santa Cruz Biotech), GluR1 (Chemicon), Synapsin1 (American Qualex), or PSD-95 (Upstate) antibody followed by the appropriate secondary antibody coupled to horseradish peroxidase (1:10,000, Santa Cruz Biotech) in Tris-buffered saline (pH 7.3) containing 5% dry milk and 0.1% Tween (BioRad). Visualization of immunoreactive bands was achieved by enhanced chemiluminescence (Perkin Elmer Biosciences) and captured on autoradiography film (Kodak Scientific). Standard curves, in which the amount of protein was varied systematically, were constructed to establish that we operated within the linear range of the chemiluminescence detection method. In addition, each immunoblot was exposed to autoradiography film multiple times (average 7; minimum 5) for varying duration to make sure we operated in the linear range of the film for each experiment. Digital images, produced by scanning films on a Epson 3200 Scanner (Epson) with Epson Scan Software (Epson), were quantified using GelPro Analyzer 3.1 software. The integrated optical density (IOD) of each immunoreactive band from hippocampal samples relative to baseline measured immediately above and below the band in the same lane, and normalized by the actin or neurofilament band also in the same lane. Group data (eight animals per group) are represented as the mean+/−SEM of the IOD of samples.

[2] = test system: NR2B; assay: as above; format: in vivo, rat; settings: rat, in vivo
Protocol: as §1

[3] = test system: NR1; assay: as above; settings: rat, in vivo
Protocol: as §1

[4] = test system: NR2A; assay: as above; settings: rat, in vivo
Protocol: as §1

[5] = test system: synapsin1; assay: as above; settings: rat, in vivo
Protocol: as §1

[6] = test system: recognition memory of 1-year old rats; assay: novel object recognition; settings: rat, in vivo
Protocol: Behavior test: Novel object recognition. The subjects were 20 experimentally naive, female, Sprague-Dawley rats (Charles River), 1 year old at the beginning of the experiment. They were housed two per cage with continuous access to food and water under a 12:12 light-dark cycle, with light onset at 8:00 a.m. Rats in the Mg^++-treated group received drinking water containing 6 mg/kg/day MgCl2 for 4 months before experiments.
The rats were first habituated to the open-field arena by allowing them to explore it for two daily 15-min sessions. Two identical objects were present in the arenas during habituation sessions; those objects were not used in the subsequent experimental trials. The rat was placed into the arena with two identical sample objects and allowed to explore for 10 min (familiarization phase). For the double-training test, the familiarization phase was repeated with the interval of 10 min. The rat was then removed and the objects were replaced with two new objects; one of the new objects was identical to the sample and the other was a novel object that the rat had never before encountered. The rat was returned to the arena for the retention test and allowed to explore for 5 min (retention test). The retention intervals were 10 min and 24 hours. Rats spent the retention interval in a cage in the colony room. Objects were cleaned thoroughly between trials with 20% ethanol solution to ensure the absence of olfactory cues. The particular objects for a given trial were randomly determined, but each object was used for only one trial per rat.
The criteria for exploration were strictly based on active exploration, in which rats had to be sniffing or touching the object with the nose and/or forepaws. The main dependent measure was the exploration ratio, that is, the proportion of total object-exploration that was spent exploring the novel object (tnovel/[tnovel+tfamiliar]) during the 5-min test phase. To determine whether the rats discriminated between the novel and familiar objects, the exploration ratios obtained under each condition were compared with what would be expected by chance (i.e., a ratio of ˜50%), using one-sample Student's t tests.

[7] = test system: postsynaptic locations of cultured hippocampal neurons; assay: postsynaptic evoked current response to iontophoretic glutamate (AMPA-R insertion); format: cell-based, rat
Source text: These were generally as described in the preceding examples. Glutamatergic iontophoresis was perfomed as described [Murnick 2000].
Since we wished to correlate the above pre-synaptic findings to the plasticity of single or small clusters of postsynaptic locations, this ruled out traditional double-patch plasticity experiments in which heterogeneous populations of connections are studied. Such studies also usually confound pre-synaptic and postsynaptic effects. For this purpose, we developed a technique of high-temporal and spatial resolution glutamatergic iontophoresis that allows us to stimulate single or small clusters of postsynaptic locations (resolution ˜2 μm, 1 ms; [Murnick 2000]).
To determine whether a decrease in overall activity of a neural network leads to increased plasticity (i.e., an increase in synaptic strength in response to a pattern of stimulation) of postsynaptic locations, we assessed the effect of treatment with Mg^++ on the ability of postsynaptic locations to respond to glutamate. As described above, Mg^++ blocks the NMDA receptor channel at resting membrane potential, so Mg^++ treatment reduces the overall activity level of the neural network. As also described above, increases in postsynaptic intracellular Ca^++ stimulated by activation of NMDA receptors leads to recruitment of AMPA receptors and their insertion into the postsynaptic membrane. […]

[Mg+2] [Mg^++]
increase in amount of GluR1 [1]: approximately 60%
increase in levels of NR2B protein [2]: two-fold increase
increase in amount of NR2B ([2]; 6 mg/kg/day): approximately 60%
change of NR1 [3]: no significant changes
change of NR2A [4]: no significant changes
change of synapsin1 [5]: no significant changes
effect on exploratory activity or motivation [6]: no effect on exploratory activity or motivation
exploratory preference towards the novel object, short-term and long-term memory trials [6]: significant exploratory preference towards the novel object
preference to the novel object, long-term [6]: 60%
preference to the novel object, short-term memory test [6]: 75%
preference towards the novel object, long-term memory test [6]: retained the same level of preference for 24 hours; also recorded: significant exploratory preference towards the novel object in long-term memory trials
total time exploring both identical objects during training [6]: 24.1 ± 2.5 s
postsynaptic evoked current response to glutamate (AMPA-R insertion) [7]: showed significant levels of AMPA-R insertion; also recorded: increased current amplitude over time
